Test results published in US12383633B1, “Injectable formulations of PARP inhibitors and uses thereof” (ZYMERON CORPORATION, priority 2024, dated 2025).
Like-named read-outs stand apart in the source and are kept apart here.

Key:
[1] = cited from earlier work
[2] = Procedure: (§1) 2.5 mL solutions of each excipient with each concentration were prepared by serial dilution of the saturated solution. One vial for each excipient experiment was prepared with 2.5 ml water. To each vial, 50 mg olaparib was added, sonicated, vortexed, and shaken at 40° C. for over 20 hr. After agitation at 25° C., the suspensions were filtered to obtain clear solutions. The clear solutions were analyzed using HPLC.
as §1, with “600 mg/mL” for “saturated”, “mL” for “ml”, “hours.” for “hr.”

[3] = assay type: physicochemical
Procedure: (§2) Sulfobutylether-β-cyclodextrin-enabled olaparib solubility enhancement experiments were conducted at various olaparib and sulfobutylether-β-cyclodextrin concentrations (FIG. 5). The dissolved quantity of olaparib increased when the concentration of sulfobutylether-β-cyclodextrin increased, indicating the formation of a 1:1 complex between the drug and solubilizer. The apparent complexation constant (K1:1) was calculated to be 432.4 M^−1 at 22° C.
This would be equivalent to >10 and >50 molar and weight ratios, respectively.
as §2, with “rucaparib” for “olaparib”, “6).” for “5).”, “596.7” for “432.4”

[4] = direct injection of 30-40% (w/v), preclinical studies; cited from earlier work

| Compound | Solubility Enhancement Factor [2] | olaparib water solubility improvement by excipient [2] | apparent complexation constant (K1:1) [3] [M⁻¹] | further results |
| --- | --- | --- | --- | --- |
| OC[C@@H](O)[C@@H](O)[C@H](O)[C@H](O)CO [D-mannitol] | 1 | – | – | saturated water solubility ([1]; 25° C.): 216 mg/mL |
| CC(O)COC[C@H]1O[C@@H]2O[C@H]3[C@H](O)[C@@H](O)[C@@H](O[C@H]4[C@H](O)[C@@H](O)[C@@H](O[C@H]5[C@H](O)[C@@H](O)[C@@H](O[C@H]6[C@H](O)[C@@H](O)[C@@H](O[C@H]7[C@H](O)[C@@H](O)[C@@H](O[C@H]8[C@H](O)[C@@H](O)[C@@H](O[C@H]1[C@H](O)[C@H]2O)O[C@@H]8COCC(C)O)O[C@@H]7COCC(C)O)O[C@@H]6COCC(C)O)O[C@@H]5COCC(C)O)O[C@@H]4COCC(C)O)O[C@@H]3COCC(C)O (stereo partly drawn) [HP-β-cyclodextrin, 2-hydroxypropyl-β-cyclodextrin] | 324 | more than 100 fold | – | – |
| O=C(c1cc(Cc2n[nH]c(=O)c3ccccc23)ccc1F)N1CCN(C(=O)C2CC2)CC1 [olaparib] | – | – | 432.4 | water solubility [1]: < 0.07 mg/mL; equivalent weight ratio sulfobutylether-β-cyclodextrin to olaparib ([3]; to achieve 5 mg/ml olaparib): > 50 |
| CNCc1ccc(-c2[nH]c3cc(F)cc4c3c2CCNC4=O)cc1 [rucaparib] | – | – | 596.7 | water solubility ([1]; across the physiological pH range): around 1 mg/mL |
| OC[C@H]1O[C@@H]2O[C@H]3[C@H](O)[C@@H](O)[C@@H](O[C@H]4[C@H](O)[C@@H](O)[C@@H](O[C@H]5[C@H](O)[C@@H](O)[C@@H](O[C@H]6[C@H](O)[C@@H](O)[C@@H](O[C@H]7[C@H](O)[C@@H](O)[C@@H](O[C@H]8[C@H](O)[C@@H](O)[C@@H](O[C@H]1[C@H](O)[C@H]2O)O[C@@H]8CO)O[C@@H]7CO)O[C@@H]6CO)O[C@@H]5CO)O[C@@H]4CO)O[C@@H]3CO [β-cyclodextrin] | 10 | 10 fold | – | – |
| sulfobutylether-β-cyclodextrin [Sulfobutylether β-cyclodextrin] | – | – | – | hypertonicity-related adverse effects [4]: did not lead to any hypertonicity-related adverse effects |
